In the CheMixHub viscosity set:
Several values for one entry are separate records, joined by “and”; a condition that tells them apart may be missing. Equal values may be shown once. ± gives the uncertainty stated by the source.

SMILES | viscosity (303.15 K, 101 kPa) [mPa·s] | viscosity (308.15 K, 101 kPa) [mPa·s] | viscosity (313.15 K, 101 kPa) [mPa·s] | viscosity (318.15 K, 101 kPa) | viscosity (323.15 K, 101 kPa) [mPa·s] | further results
C=Cn1cc[n+](CC(N)=O)c1.O=S(=O)([N-]S(=O)(=O)C(F)(F)F)C(F)(F)F |  |  |  |  |  | viscosity (298.15 K, 100 kPa): 280.7 ± 58 mPa·s; viscosity (303.15 K, 100 kPa): 140.3 ± 28 mPa·s; viscosity (308.15 K, 100 kPa): 71.51 ± 14 mPa·s; viscosity (313.15 K, 100 kPa): 35.3 ± 7.1 mPa·s; viscosity (318.15 K, 100 kPa): 19.85 ± 4 mPa·s; viscosity (323.15 K, 100 kPa): 12.53 ± 2.5 mPa·s
CC(=O)c1ccc(C)cc1 | 1.581 ± 0.021 |  |  |  |  | viscosity (303.15 K, 100 kPa): 1.581 ± 0.021 mPa·s
CC1CCC(=O)O1 (stereo not given) | 1.72 ± 0.015 | 1.586 ± 0.014 | 1.458 ± 0.013 | 1.364 ± 0.012 mPa·s |  | viscosity (298.15 K, 101 kPa): 1.873 ± 0.016 mPa·s
CCCCC(CC)COP(=O)(O)OCC(CC)CCCC (stereo not given) | 20.25 ± 0.81 |  | 13.35 ± 0.54 |  |  | 
CCCCCCCCCCCCN | 2.658 ± 0.029 |  |  |  |  | 
CCCCCCCCCCCC[N+](C)(C)Cc1ccccc1.O=S(=O)([N-]S(=O)(=O)C(F)(F)F)C(F)(F)F | 974.3 ± 130 | 682.7 ± 88 | 484.8 ± 59 | 351.1 ± 41 mPa·s | 260.6 ± 29 | viscosity (298.15 K, 101 kPa): 1425 ± 200 mPa·s
CCCCCCn1cc[n+](C)c1.F[P-](F)(F)(F)(F)F | 497.1 ± 150 | 364.4 ± 110 | 273 ± 83 | 208.5 ± 63 mPa·s |  | 
CCCCOC(=O)C(C)O (stereo not given) |  |  |  | 1.935 ± 0.034 mPa·s |  | 
CCCCOCCOCCOCCO | 6.528 ± 0.04 |  | 4.979 ± 0.032 |  | 3.769 ± 0.024 | viscosity (293.15 K, 101 kPa): 9.282 ± 0.055 mPa·s
CCCC[n+]1cc[nH]c1.O=S(=O)([N-]S(=O)(=O)C(F)(F)F)C(F)(F)F |  |  |  |  |  | viscosity (313.2 K, 101.33 kPa): 47.18 ± 5.1 mPa·s
C[N+](=O)[O-] |  |  |  | 0.5208 ± 0.014 mPa·s and 0.51 ± 0.006 mPa·s and 0.505 ± 0.005 mPa·s | 0.486 ± 0.006 | viscosity (293.15 K, 101 kPa): 0.648 ± 0.007 mPa·s; viscosity (293.15 K, 101.33 kPa): 0.644 ± 0.005 mPa·s and 0.644 ± 0.007 mPa·s and 0.646 ± 0.006 mPa·s; viscosity (298 K, 101.3 kPa): 0.627 ± 0.008 mPa·s; viscosity (298.15 K, 101.33 kPa): 0.6215 ± 0.0083 mPa·s and 0.615 ± 0.025 mPa·s; viscosity (298.45 K, 101 kPa): 0.619 ± 0.006 mPa·s; viscosity (303.15 K, 101.33 kPa): 0.581 ± 0.006 mPa·s and 0.581 ± 0.024 mPa·s; viscosity (313.15 K, 101.33 kPa): 0.522 ± 0.005 mPa·s and 0.522 ± 0.021 mPa·s; viscosity (318 K, 101.3 kPa): 0.5187 ± 0.02 mPa·s; viscosity (323.15 K, 101.33 kPa): 0.4845 ± 0.0066 mPa·s
OCC1CC1 | 3.002 ± 0.064 | 2.629 ± 0.056 | 2.315 ± 0.05 |  | 1.819 ± 0.039 | viscosity (293.15 K, 101 kPa): 3.985 ± 0.085 mPa·s; viscosity (298.15 K, 101 kPa): 3.447 ± 0.074 mPa·s
c1ccc(Cc2ccccc2)cc1 |  |  |  |  |  | viscosity (302.85 K, 101 kPa): 2.611 ± 0.069 mPa·s
